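Method: 48-hour compound exposure of cells in 96-well plates, five concentrations, linear interpolation of endpoints. GI50 = concentration required for 50% inhibition of growth.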 Active and inactive are the calls of the source. Rule as the data show it: active = GI50 up to about 1.1 µM and inactive = higher.
How the values were obtained:
Experiment in all cases: NCI anticancer screen, dose series, 48 h
[1] = system: CAKI-1
[2] = system: CCRF-CEM
[3] = system: DU-145
[4] = system: EKVX
[5] = system: HCT-15
[6] = system: IGROV-1
[7] = system: K562
[8] = system: M14
[9] = system: MCF7
[10] = system: MDA-MB-231
[11] = system: NCI-H23
[12] = system: OVCAR-8
[13] = system: SK-MEL-5
[14] = system: SNB-75
[15] = system: SW-620
[16] = system: TK-10
[17] = system: U-251
[18] = system: UO-31
[19] = system: OVCAR-4
[20] = system: HCC 2998

In the case of `CC(NC(=O)CNP(=O)(c1ccccc1)c1ccccc1)C(=O)NC(Cc1ccccc1)C(=O)OCc1ccccc1` (stereo not given), the GI50 [1] is reported as > 100 µM (inactive), the GI50 [2] is reported as > 10 µM (inactive) and the GI50 [3] is reported as > 100 µM (inactive). The GI50 [4] was 24.1 µM (inactive), the GI50 [5] was > 100 µM and the GI50 [6] was 66.5 µM (inactive). For the same compound, the GI50 [7] was > 10 µM (inactive), the GI50 [8] was 49.7 µM (inactive) and the GI50 [9] was 24.6 µM (inactive). For the same compound, the GI50 [10] was 35.6 µM (inactive), the GI50 [11] was 37.8 µM (inactive) and the GI50 [12] was > 100 µM (inactive). For the same compound, the GI50 [13] was 25.7 µM (inactive), the GI50 [14] was 19.6 µM (inactive) and the GI50 [15] was 45.7 µM (inactive). The GI50 [16] was > 100 µM (inactive), the GI50 [17] was 23.4 µM (inactive) and the GI50 [18] was > 100 µM (inactive).

`COc1cc2nc3n(c(=O)c2cc1OC)CCCCC3` was tested, and the GI50 [1] was > 100 µM (inactive), the GI50 [2] was 94.2 µM (inactive) and the GI50 [3] was > 100 µM (inactive). The GI50 [4] was > 100 µM (inactive), the GI50 [5] was > 100 µM and the GI50 [6] was > 100 µM (inactive). For the same compound, the GI50 [7] was > 100 µM (inactive), the GI50 [8] was > 100 µM (inactive) and the GI50 [9] was > 100 µM (inactive). For the same compound, the GI50 [10] was > 100 µM (inactive), the GI50 [11] was > 100 µM (inactive) and the GI50 [19] was > 100 µM (inactive). For the same compound, the GI50 [12] was > 100 µM (inactive), the GI50 [13] was > 100 µM (inactive) and the GI50 [14] was > 100 µM (inactive). The GI50 [15] was > 100 µM (inactive), the GI50 [16] was > 100 µM (inactive) and the GI50 [17] was > 100 µM (inactive). For the same compound, the GI50 [18] was > 100 µM (inactive).

For `CCCNc1c(Cl)cc(Cl)c2[nH]c3ccccc3c(=O)c12`, the GI50 [1] was 62.5 µM (inactive), the GI50 [2] was 49.3 µM (inactive) and the GI50 [4] was 35.6 µM (inactive). The GI50 [20] was 41.3 µM (inactive), the GI50 [5] was 98.6 µM and the GI50 [6] was 24.5 µM (inactive). For the same compound, the GI50 [7] was 28.3 µM (inactive), the GI50 [8] was 55.7 µM (inactive) and the GI50 [9] was 28.4 µM (inactive). The GI50 [10] was 77.1 µM (inactive), the GI50 [11] was 27.7 µM (inactive) and the GI50 [19] was > 100 µM (inactive). For the same compound, the GI50 [12] was 40.3 µM (inactive), the GI50 [13] was 32.7 µM (inactive) and the GI50 [14] was 31.5 µM (inactive). For the same compound, the GI50 [15] was 88.5 µM (inactive), the GI50 [16] was 51.3 µM (inactive) and the GI50 [17] was 37.1 µM (inactive). For the same compound, the GI50 [18] was 32.1 µM (inactive).

In the case of `CC(=O)NNc1nc(C)c(C(/C=C/c2ccc3c(c2)OCO3)=N/NC(=O)c2ccncc2)s1`, the GI50 [1] is reported as > 100 µM (inactive), the GI50 [2] is reported as > 100 µM (inactive) and the GI50 [4] is reported as 62.5 µM (inactive). For the same compound, the GI50 [20] was > 100 µM (inactive), the GI50 [5] was > 100 µM and the GI50 [6] was > 100 µM (inactive). The GI50 [7] was > 100 µM (inactive), the GI50 [8] was > 100 µM (inactive) and the GI50 [9] was > 100 µM (inactive). The GI50 [10] was > 100 µM (inactive), the GI50 [11] was > 100 µM (inactive) and the GI50 [19] was > 100 µM (inactive). For the same compound, the GI50 [12] was > 100 µM (inactive), the GI50 [13] was > 100 µM (inactive) and the GI50 [14] was > 100 µM (inactive). For the same compound, the GI50 [15] was > 100 µM (inactive), the GI50 [16] was > 100 µM (inactive) and the GI50 [17] was > 100 µM (inactive). The GI50 [18] was > 100 µM (inactive).

For `O=C(O)c1ccc(Nc2nc3ccc(C(F)(F)F)cc3nc2-c2ccccc2)cc1`, the GI50 [1] was 44.6 µM (inactive), the GI50 [2] was 36.1 µM (inactive) and the GI50 [3] was > 10 µM (inactive). The GI50 [4] was 29 µM (inactive), the GI50 [20] was 14.5 µM (inactive) and the GI50 [5] was 18.6 µM. For the same compound, the GI50 [6] was 43.4 µM (inactive), the GI50 [7] was 45.2 µM (inactive) and the GI50 [8] was 24 µM (inactive). The GI50 [9] was 15 µM (inactive), the GI50 [11] was 48 µM (inactive) and the GI50 [12] was 30.9 µM (inactive). For the same compound, the GI50 [13] was 29.2 µM (inactive), the GI50 [14] was 40 µM (inactive) and the GI50 [15] was 45.7 µM (inactive). For the same compound, the GI50 [16] was 23.1 µM (inactive), the GI50 [17] was 31.4 µM (inactive) and the GI50 [18] was 23.9 µM (inactive).

For `Cc1c(/C=N\NC(=S)N(C)CCN(C)C(=S)N/N=C\c2c(C)n(C)n(-c3ccccc3)c2=O)c(=O)n(-c2ccccc2)n1C`, the GI50 [1] was > 100 µM (inactive), the GI50 [3] was > 100 µM (inactive) and the GI50 [4] was > 100 µM (inactive). For the same compound, the GI50 [20] was > 100 µM (inactive), the GI50 [5] was > 100 µM and the GI50 [8] was > 100 µM (inactive). The GI50 [10] was > 100 µM (inactive), the GI50 [11] was > 100 µM (inactive) and the GI50 [19] was > 100 µM (inactive). For the same compound, the GI50 [13] was > 100 µM (inactive), the GI50 [14] was 42.6 µM (inactive) and the GI50 [15] was > 100 µM (inactive). The GI50 [16] was > 100 µM (inactive), the GI50 [17] was > 100 µM (inactive) and the GI50 [18] was > 100 µM (inactive).

With `O=c1[nH]c2ccccc2nc1CBr` the GI50 [1] was 7.33 µM (inactive), the GI50 [2] was 0.399 µM (active) and the GI50 [3] was 19.2 µM (inactive). The GI50 [4] was 3.3 µM (inactive), the GI50 [20] was 20.6 µM (inactive) and the GI50 [5] was 8.95 µM. For the same compound, the GI50 [6] was 4.22 µM (inactive), the GI50 [7] was 2.24 µM (inactive) and the GI50 [8] was 10.6 µM (inactive). For the same compound, the GI50 [10] was 11.2 µM (inactive), the GI50 [11] was 14.6 µM (inactive) and the GI50 [19] was 4.62 µM (inactive). The GI50 [12] was 13.8 µM (inactive), the GI50 [13] was 10.8 µM (inactive) and the GI50 [14] was 12.8 µM (inactive). For the same compound, the GI50 [15] was 4.19 µM (inactive), the GI50 [16] was 13.8 µM (inactive) and the GI50 [17] was 9.98 µM (inactive). The GI50 [18] was 3.87 µM (inactive).

For `CC(C)N(c1cc2c(cc1F)c(=O)c(C(=O)O)cn2-c1ccc(N2CCN(C)CC2)cn1)C(C)C`, the GI50 [1] was > 100 µM (inactive), the GI50 [2] was > 100 µM (inactive) and the GI50 [3] was > 100 µM (inactive). For the same compound, the GI50 [4] was > 100 µM (inactive), the GI50 [5] was > 100 µM and the GI50 [6] was > 100 µM (inactive). For the same compound, the GI50 [7] was > 100 µM (inactive), the GI50 [8] was > 100 µM (inactive) and the GI50 [9] was > 100 µM (inactive). For the same compound, the GI50 [10] was > 100 µM (inactive), the GI50 [11] was > 100 µM (inactive) and the GI50 [19] was > 100 µM (inactive). The GI50 [12] was > 100 µM (inactive), the GI50 [14] was > 100 µM (inactive) and the GI50 [15] was > 100 µM (inactive). The GI50 [16] was > 100 µM (inactive), the GI50 [17] was > 100 µM (inactive) and the GI50 [18] was > 100 µM (inactive).

Source: ChEMBL document CHEMBL1201862, “PubChem BioAssay data set” (2004)
